Consider 2 molecules from PMC8458281, “Computational modeling and experimental validation of the EPI-X4/CXCR4 complex allows rational design of small peptide antagonists” (Communications Biology, 2021).

In experiment [1] the test system is CXCR4 D97N. As to the kind of experiment: 12G5 antibody competition, 293T cells transfected with CXCR4 D97N. Type of experiment: binding, human. The note with it: IC50 on CXCR4 D97N relative to wt. On the procedure:
(§1) Fig. 4 The interactions of EPI-X4 and the EPI-X4 derivatives WSC02 and JM#21 with point-mutated CXCR4 were assessed by an antibody competition assay. Amino acid substitutions were introduced in the sequence of CXCR4 by site-directed mutagenesis, cloned into an IRES-eGFP expression vector, and transfected into 293 T cells. Afterward, cells were incubated with serially diluted EPI-X4 (a, b), WSC02 (c, d), or JM#21 (e, f) in presence of a constant concentration of CXCR4 specific antibody (clone 12G5). After 2 h, bound antibody was analyzed by flow cytometry. a, c, e) Representative dose-dependent replacement of 12G5 antibody by peptides. b, d, f) IC50 values were calculated by nonlinear regression. Shown are data derived from at least three individual experiments ± SEM. IC50 values were set to 1000 µM (EPI-X4 and WSC02) or 100 µM (JM#21) if the value exceeds the maximally used concentration. *p ≤ 0.05, ***p ≤ 0.001 (one-way ANOVA for comparison with wt). For IC50 values see Table 1. For all binding curves see also Fig. S8.
(§2) Mutated CXCR4 constructs were transfected into 293 T cells that have a very low endogenous expression level of wild-type CXCR4. Transfected cells were then analyzed for CXCR4 surface expression (Fig. S5a) and EPI-X4 binding using a flow cytometry-based antibody competition assay (Fig. S5b, c)[33]. […]

The subject of experiment [2] is CXCR4 L41A. The experiment in a line: 12G5 antibody competition, 293T cells transfected with CXCR4 L41A. Type of experiment: binding, human. As to conditions: IC50 on CXCR4 L41A relative to wt. On the procedure:
as §1, §2

The test system of experiment [3] is CXCR4 V112A. The experiment in a line: 12G5 antibody competition, 293T cells transfected with CXCR4 V112A. The experiment is classed as binding, human. The note with it: IC50 on CXCR4 V112A relative to wt. On the procedure: as §1, §2
Experiment [4] deals with CXCR4 D262A. The experiment in a line: 12G5 antibody competition, 293T cells transfected with CXCR4 D262A. The note with it: IC50 on CXCR4 D262A relative to wt. Type of experiment: binding, human. The procedure:
as §1, §2

In experiment [5] the test system is CXCR4 D187E. The experiment in a line: 12G5 antibody competition, 293T cells transfected with CXCR4 D187E. As to conditions: IC50 on CXCR4 D187E relative to wt. The experiment is classed as binding, human. On the procedure: as §1, §2
In experiment [6] the test system is CXCR4 V112L. The experiment in a line: 12G5 antibody competition, 293T cells transfected with CXCR4 V112L. The experiment is classed as binding, human. As to conditions: IC50 on CXCR4 V112L relative to wt. On the procedure:
as §1, §2

Experiment [7] addresses T1, CXCR4 D97Q (human, UniProt P61073-1 1-352, D97Q).
T1 construct: human CXCR4, isoform 1 or b; source: 293T cells, transiently transfected (pcDNA3.1 CXCR4-IRES-eGFP), on cells
As to the kind of experiment: flow cytometry on cells; 12G5 antibody competition on 293T cells transiently transfected with CXCR4 wt or mutants (IRES-eGFP vector), eGFP-positive cells gated; serially diluted peptide with a constant concentration of CXCR4 antibody clone 12G5, 2 h; bound antibody read; IC50 by nonlinear regression. The note with it: one partner purified. Background: In flow cytometry, cells or beads pass a laser one at a time.

Experiment [8] has as its target T2, CXCR4 D97T (human, UniProt P61073-1 1-352, D97T).
T2 construct: human CXCR4, isoform 1 or b; source: 293T cells, transiently transfected (pcDNA3.1 CXCR4-IRES-eGFP), on cells
The experiment is described as above. As to conditions: one partner purified.

The target in experiment [9] is T3, CXCR4 wt (transfected 293T cells) (human, UniProt P61073-1 1-352).
T3 construct: human CXCR4, isoform 1 or b; eGFP is expressed separately from an IRES, not fused; also called wild-type CXCR4; source: 293T cells, transiently transfected (pcDNA3.1 CXCR4-IRES-eGFP), on cells
The experiment is described as above. The note with it: one partner purified.

Experiment [10] addresses T4, CXCR4 E277A (human, UniProt P61073-1 1-352, E277A).
T4 construct: human CXCR4, isoform 1 or b; source: 293T cells, transiently transfected (pcDNA3.1 CXCR4-IRES-eGFP), on cells
The experiment is described as above. As to conditions: one partner purified.

T3 sequence (P61073 whole entry, the tested form may be a part, canonical isoform): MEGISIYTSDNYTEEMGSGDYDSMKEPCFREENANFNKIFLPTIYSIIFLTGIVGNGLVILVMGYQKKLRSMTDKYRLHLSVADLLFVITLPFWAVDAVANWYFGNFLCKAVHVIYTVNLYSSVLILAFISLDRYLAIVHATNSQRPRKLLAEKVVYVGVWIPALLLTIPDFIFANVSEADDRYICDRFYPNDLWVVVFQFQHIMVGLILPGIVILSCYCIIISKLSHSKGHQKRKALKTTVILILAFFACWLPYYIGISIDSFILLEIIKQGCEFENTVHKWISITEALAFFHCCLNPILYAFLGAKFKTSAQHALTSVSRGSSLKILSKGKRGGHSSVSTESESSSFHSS
T2 sequence (P61073 whole entry D97T, canonical isoform): as the sequence (P61073 whole entry, the tested form may be a part, canonical isoform) above, with D97T counted along it
T4 sequence (P61073 whole entry E277A, canonical isoform): as the sequence (P61073 whole entry, the tested form may be a part, canonical isoform) above, with E277A counted along it
T1 sequence (P61073 whole entry D97Q, canonical isoform): as the sequence (P61073 whole entry, the tested form may be a part, canonical isoform) above, with D97Q counted along it

Take “IVRWSKKVPCVS [WSC02, first-generation C-terminally truncated 12-mer derivative of EPI-X4 with four substitutions]”: the Fold change in experiment [1] was 466; in experiment [2], 1.5; in experiment [3] it was 0.6; in experiment [4] it was 0.4; in [5] it was 0.4; in [6], 0.4.

B1: EPI-X4 (Alb408-423) (peptide)
peptide: LVRYTKKVPQVSTPTL
notes: source: synthetic peptide (Fmoc solid-phase synthesis, HPLC-purified)
The IC50 is the concentration that gives 50% inhibition. Higher therefore signals a need for much substance. B1: the 50% inhibitory concentration (IC50) in experiment [7] is above 1000 µM; in experiment [8], above 1000 µM; in [9], 6.99 µM; in experiment [10], 8.91 µM.
